Numbers after ± are expanded uncertainties.
Conditions: Liquid

ClCCCCCl [1,4-dichlorobutane]
mass density (288.15 K, 100 kPa): 1143.7 ± 3.5 kg/m3
mass density (288.15 K, 500 kPa): 1144.1 ± 3.5 kg/m3
mass density (288.15 K, 1000 kPa): 1144.5 ± 3.5 kg/m3
mass density (288.15 K, 1500 kPa): 1144.8 ± 3.6 kg/m3
mass density (288.15 K, 2000 kPa): 1145.2 ± 3.6 kg/m3
mass density (288.15 K, 2500 kPa): 1145.5 ± 3.6 kg/m3
mass density (288.15 K, 3000 kPa): 1145.9 ± 3.7 kg/m3
mass density (288.15 K, 3600 kPa): 1146.4 ± 3.7 kg/m3
mass density (288.15 K, 4100 kPa): 1146.7 ± 3.8 kg/m3
mass density (288.15 K, 4600 kPa): 1147 ± 3.8 kg/m3
mass density (288.15 K, 5100 kPa): 1147.4 ± 3.8 kg/m3
mass density (288.15 K, 5600 kPa): 1147.7 ± 3.9 kg/m3
mass density (288.15 K, 6100 kPa): 1148.1 ± 3.9 kg/m3
mass density (288.15 K, 6600 kPa): 1148.5 ± 4 kg/m3
mass density (288.15 K, 7100 kPa): 1148.9 ± 4 kg/m3
mass density (288.15 K, 7600 kPa): 1149.2 ± 4 kg/m3
mass density (288.15 K, 8100 kPa): 1149.5 ± 4.1 kg/m3
mass density (288.15 K, 8600 kPa): 1149.9 ± 4.1 kg/m3
mass density (288.15 K, 9200 kPa): 1150.3 ± 4.2 kg/m3
mass density (288.15 K, 9600 kPa): 1150.7 ± 4.2 kg/m3
mass density (288.15 K, 10100 kPa): 1151 ± 4.2 kg/m3
mass density (288.15 K, 10600 kPa): 1151.3 ± 4.3 kg/m3
mass density (288.15 K, 11100 kPa): 1151.7 ± 4.3 kg/m3
mass density (288.15 K, 11600 kPa): 1152 ± 4.4 kg/m3
mass density (288.15 K, 12100 kPa): 1152.4 ± 4.4 kg/m3
mass density (288.15 K, 12600 kPa): 1152.7 ± 4.4 kg/m3
mass density (288.15 K, 13100 kPa): 1153.1 ± 4.5 kg/m3
mass density (288.15 K, 13500 kPa): 1153.3 ± 4.5 kg/m3
mass density (288.15 K, 14200 kPa): 1153.8 ± 4.6 kg/m3
mass density (288.15 K, 14700 kPa): 1154.1 ± 4.6 kg/m3
mass density (288.15 K, 15200 kPa): 1154.4 ± 4.6 kg/m3
mass density (288.15 K, 15700 kPa): 1154.8 ± 4.7 kg/m3
mass density (288.15 K, 16300 kPa): 1155.2 ± 4.7 kg/m3
mass density (288.15 K, 16800 kPa): 1155.6 ± 4.8 kg/m3
mass density (288.15 K, 17300 kPa): 1155.9 ± 4.8 kg/m3
mass density (288.15 K, 17800 kPa): 1156.2 ± 4.9 kg/m3
mass density (288.15 K, 18300 kPa): 1156.5 ± 4.9 kg/m3
mass density (288.15 K, 18800 kPa): 1156.8 ± 4.9 kg/m3
mass density (288.15 K, 19100 kPa): 1157.1 ± 5 kg/m3
mass density (288.15 K, 19700 kPa): 1157.4 ± 5 kg/m3
mass density (288.15 K, 20200 kPa): 1157.8 ± 5.1 kg/m3
mass density (298.15 K, 100 kPa): 1133.7 ± 3.4 kg/m3
mass density (298.15 K, 500 kPa): 1134 ± 3.4 kg/m3
mass density (298.15 K, 1000 kPa): 1134.4 ± 3.4 kg/m3
mass density (298.15 K, 1500 kPa): 1134.8 ± 3.5 kg/m3
mass density (298.15 K, 2000 kPa): 1135.2 ± 3.5 kg/m3
mass density (298.15 K, 2500 kPa): 1135.6 ± 3.5 kg/m3
mass density (298.15 K, 3100 kPa): 1136.1 ± 3.6 kg/m3
mass density (298.15 K, 3600 kPa): 1136.4 ± 3.6 kg/m3
mass density (298.15 K, 4100 kPa): 1136.8 ± 3.7 kg/m3
mass density (298.15 K, 4600 kPa): 1137.2 ± 3.7 kg/m3
mass density (298.15 K, 5100 kPa): 1137.6 ± 3.7 kg/m3
mass density (298.15 K, 5600 kPa): 1137.9 ± 3.8 kg/m3
mass density (298.15 K, 6100 kPa): 1138.4 ± 3.8 kg/m3
mass density (298.15 K, 6600 kPa): 1138.7 ± 3.8 kg/m3
mass density (298.15 K, 7100 kPa): 1139.1 ± 3.9 kg/m3
mass density (298.15 K, 7600 kPa): 1139.4 ± 3.9 kg/m3
mass density (298.15 K, 8100 kPa): 1139.8 ± 4 kg/m3
mass density (298.15 K, 8600 kPa): 1140.2 ± 4 kg/m3
mass density (298.15 K, 9200 kPa): 1140.6 ± 4 kg/m3
mass density (298.15 K, 9600 kPa): 1141 ± 4.1 kg/m3
mass density (298.15 K, 10100 kPa): 1141.4 ± 4.1 kg/m3
mass density (298.15 K, 10700 kPa): 1141.8 ± 4.2 kg/m3
mass density (298.15 K, 11100 kPa): 1142.1 ± 4.2 kg/m3
mass density (298.15 K, 11600 kPa): 1142.4 ± 4.2 kg/m3
mass density (298.15 K, 12100 kPa): 1142.8 ± 4.3 kg/m3
mass density (298.15 K, 12600 kPa): 1143.2 ± 4.3 kg/m3
mass density (298.15 K, 13100 kPa): 1143.6 ± 4.3 kg/m3
mass density (298.15 K, 13600 kPa): 1143.9 ± 4.4 kg/m3
mass density (298.15 K, 14100 kPa): 1144.2 ± 4.4 kg/m3
mass density (298.15 K, 14700 kPa): 1144.6 ± 4.5 kg/m3
mass density (298.15 K, 15200 kPa): 1145 ± 4.5 kg/m3
mass density (298.15 K, 15700 kPa): 1145.4 ± 4.5 kg/m3
mass density (298.15 K, 16200 kPa): 1145.8 ± 4.6 kg/m3
mass density (298.15 K, 16700 kPa): 1146.1 ± 4.6 kg/m3
mass density (298.15 K, 17200 kPa): 1146.5 ± 4.7 kg/m3
mass density (298.15 K, 17800 kPa): 1146.9 ± 4.7 kg/m3
mass density (298.15 K, 18300 kPa): 1147.2 ± 4.7 kg/m3
mass density (298.15 K, 18800 kPa): 1147.6 ± 4.8 kg/m3
mass density (298.15 K, 19200 kPa): 1147.9 ± 4.8 kg/m3
mass density (298.15 K, 19700 kPa): 1148.2 ± 4.9 kg/m3
mass density (298.15 K, 20200 kPa): 1148.7 ± 4.9 kg/m3
